What all share (assay type): cell-based
Assay [1] has as its target human serotonin transporter (hSERT) (Homo sapiens, UniProt P31645). Description: Neurotransmitter transporter uptake assay, HEK-hSERT. As to conditions: for inhibition at 10 µM: read-out: % Inhibition at 10 μM hSERT.
The target of assay [2] is human norepinephrine transporter (hNET) (Homo sapiens, UniProt P23975). Description: Neurotransmitter transporter uptake assay, HEK-hNET. Conditions: read-out: % Inhibition at 10 μM hNET.
The target of assay [3] is human dopamine transporter (hDAT) (Homo sapiens, UniProt Q01959). Description: Neurotransmitter transporter uptake assay, HEK-hDAT. Conditions: for inhibition at 10 µM: read-out: % Inhibition at 10 μM hDAT.
Chain of human dopamine transporter (hDAT) (Q01959 whole entry): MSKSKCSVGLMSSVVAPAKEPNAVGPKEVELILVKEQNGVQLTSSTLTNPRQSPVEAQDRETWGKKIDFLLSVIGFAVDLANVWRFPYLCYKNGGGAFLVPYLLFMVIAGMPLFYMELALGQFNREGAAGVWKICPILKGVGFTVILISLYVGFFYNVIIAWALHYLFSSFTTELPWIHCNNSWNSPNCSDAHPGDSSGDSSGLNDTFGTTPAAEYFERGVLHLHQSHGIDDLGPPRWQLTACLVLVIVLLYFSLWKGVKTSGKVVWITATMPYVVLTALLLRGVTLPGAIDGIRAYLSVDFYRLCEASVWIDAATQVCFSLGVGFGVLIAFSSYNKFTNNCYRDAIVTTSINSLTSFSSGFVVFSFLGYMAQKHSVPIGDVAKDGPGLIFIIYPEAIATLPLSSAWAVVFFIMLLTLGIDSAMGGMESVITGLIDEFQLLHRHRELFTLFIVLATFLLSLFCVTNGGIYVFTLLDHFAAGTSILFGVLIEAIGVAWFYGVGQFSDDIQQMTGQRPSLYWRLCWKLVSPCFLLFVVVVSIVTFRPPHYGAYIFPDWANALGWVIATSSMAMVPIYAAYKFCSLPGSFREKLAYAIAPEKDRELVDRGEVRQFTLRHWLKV
Another assay has as its target T1, hOPRM1 receptor (Homo sapiens, UniProt P35372).
T1 construct: host or cells: CHO-K1
Kind of assay: PathHunter CHO-K1 OPRM1 β-arrestin recruitment assay. (In general: Arrestin recruitment assays detect the binding of arrestin to an activated receptor.)

The target in assay [4] is T2, human μ-opioid receptor (OPRM1) (Homo sapiens, UniProt P35372).
T2 construct: host or cells: HEK293 (constitutive expression)
T2 sequence (P35372 whole entry): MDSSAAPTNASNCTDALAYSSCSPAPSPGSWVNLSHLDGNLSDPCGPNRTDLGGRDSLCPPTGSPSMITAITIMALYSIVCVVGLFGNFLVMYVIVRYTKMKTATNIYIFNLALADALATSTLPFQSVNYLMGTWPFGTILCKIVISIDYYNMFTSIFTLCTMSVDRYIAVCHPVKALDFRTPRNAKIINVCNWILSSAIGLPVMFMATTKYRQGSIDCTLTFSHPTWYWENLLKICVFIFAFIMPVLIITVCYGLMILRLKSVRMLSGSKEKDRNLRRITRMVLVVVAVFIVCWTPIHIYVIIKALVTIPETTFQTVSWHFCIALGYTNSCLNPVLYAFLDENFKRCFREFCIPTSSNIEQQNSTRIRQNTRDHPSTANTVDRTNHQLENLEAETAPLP
Kind of assay: Intracellular calcium mobilization (FLIPR Tetra), HEK-hMOR agonism. Conditions: for % Stimulation at 10 μM, OPRM1 Agonism against DAMGO (3.9 μM): HEK-hMOR calcium mobilization, normalized to Emax of DAMGO at 3.9 μM.

In assay [5] the target is T3, human κ-opioid receptor (OPRK1) (Homo sapiens, UniProt P41145).
T3 construct: host or cells: HEK293 (constitutive expression)
T3 sequence (P41145 whole entry): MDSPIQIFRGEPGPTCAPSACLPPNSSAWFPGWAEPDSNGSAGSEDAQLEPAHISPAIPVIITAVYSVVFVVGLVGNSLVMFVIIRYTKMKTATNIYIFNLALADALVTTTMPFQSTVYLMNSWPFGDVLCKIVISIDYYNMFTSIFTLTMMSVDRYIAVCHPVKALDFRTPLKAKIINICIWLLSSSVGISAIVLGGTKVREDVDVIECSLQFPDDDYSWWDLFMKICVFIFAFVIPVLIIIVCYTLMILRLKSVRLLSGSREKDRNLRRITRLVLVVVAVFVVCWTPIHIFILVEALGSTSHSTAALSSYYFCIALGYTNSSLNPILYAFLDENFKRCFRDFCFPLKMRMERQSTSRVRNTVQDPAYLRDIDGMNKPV
Description: Intracellular calcium mobilization (FLIPR Tetra), HEK-hKOR agonism. Conditions: read-out: % Stimulation at 10 μM, OPRK1 Agonism against DynorphinA (370 nM). The protocol:
Intracellular calcium mobilization was measured by using FLIPR Tetra System (Molecular Devices, Sunnyvale, CA, USA) in accordance with manufacturer’s instruction. […] Subsequently, the plate was transferred to the FLIPR tetra system for treating 50 μL of the 5× compounds diluted in loading buffer and reading intracellular calcium mobilization. The final concentration of DMSO was 0.1%. […] A dose response curve was generated with the changes in Relative Fluorescence Units (∆RFU) versus Log10 dose.
Experimental details for Biology
Cell culture. HEK293 cells stably expressing human DA transporter (HEK-hDAT), human NE transporter (HEK-hNET) and human serotonin transporter (HEK-hSERT) were kindly provided by Professor Bryan Roth (University of North Carolina at Chapel Hill). And HEK293 cells constitutively expressing human κ- or μ- opioid receptor (HEK-hKOR_NM000912 or HEK-hMOR_NM000914) were constructed by Professor Ki Duk Park (in Korea Institute of Science […]
Europins DiscoveRx (Fremont, CA, USA). Cells were mainta ined in Dulbecco's modified Eagle's medium (HyClone, Logan, UT, USA) supplemented with 10%(v/v) fetal bovine serum (FBS, HyClone, Logan, UT, USA), penicillin (100 U/mL), and streptomycin (100 μg/mL) in the […]
for HEK-hDAT, HEK-hNET, HEK-hSERT, HEK-hKOR and HEK-hMOR respectively) in a humidified 5% CO2 incubator at 37 °C. In case of both HEK-hKOR and HEK-hMOR, cells were additionally maintained in 0.2 mg/mL hygromycin B, 1 μg/mL puromycin B, 1× non-essential amino acids. The cells were subcultured every 3-4 days. […]
(In general: Calcium flux is commonly read through the fluorescence of an indicator in the cells.)

[6] abbreviates: 10 μM, HEK-hSERT, mean ± SEM, n = 3–6.
[7] abbreviates: 10 μM, HEK-hNET, mean ± SEM, n = 3–6.

Results on 15 compounds are retold here after publication PMC9030932, “Development of Dibenzothiazepine Derivatives as Multifunctional Compounds for Neuropathic Pain” (Pharmaceuticals, 2022).

The structures appear in SMILES notation. Like-named read-outs stand apart in the source and are kept apart here. Marks after values point to notes of the source that are not given here.

T1 sequence (P35372 whole entry): as the sequence (P35372 whole entry) above
Chain of human norepinephrine transporter (hNET) (P23975 whole entry): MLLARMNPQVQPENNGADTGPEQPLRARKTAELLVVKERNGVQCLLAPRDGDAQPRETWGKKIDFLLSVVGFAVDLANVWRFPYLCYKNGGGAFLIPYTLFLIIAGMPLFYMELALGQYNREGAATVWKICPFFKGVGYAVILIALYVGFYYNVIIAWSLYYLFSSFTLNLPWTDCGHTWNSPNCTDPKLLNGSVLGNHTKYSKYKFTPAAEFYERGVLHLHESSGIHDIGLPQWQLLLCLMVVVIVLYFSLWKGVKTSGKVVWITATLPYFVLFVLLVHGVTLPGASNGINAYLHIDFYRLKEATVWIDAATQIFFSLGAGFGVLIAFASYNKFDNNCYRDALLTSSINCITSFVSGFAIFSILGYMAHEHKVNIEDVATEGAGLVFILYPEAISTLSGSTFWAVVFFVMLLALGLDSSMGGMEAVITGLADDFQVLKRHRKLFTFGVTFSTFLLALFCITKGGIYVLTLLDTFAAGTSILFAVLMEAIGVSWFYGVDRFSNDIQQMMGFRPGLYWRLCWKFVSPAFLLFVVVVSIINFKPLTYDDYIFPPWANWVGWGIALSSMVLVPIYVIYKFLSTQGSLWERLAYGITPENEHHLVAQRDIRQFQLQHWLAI
Chain of human serotonin transporter (hSERT) (P31645 whole entry): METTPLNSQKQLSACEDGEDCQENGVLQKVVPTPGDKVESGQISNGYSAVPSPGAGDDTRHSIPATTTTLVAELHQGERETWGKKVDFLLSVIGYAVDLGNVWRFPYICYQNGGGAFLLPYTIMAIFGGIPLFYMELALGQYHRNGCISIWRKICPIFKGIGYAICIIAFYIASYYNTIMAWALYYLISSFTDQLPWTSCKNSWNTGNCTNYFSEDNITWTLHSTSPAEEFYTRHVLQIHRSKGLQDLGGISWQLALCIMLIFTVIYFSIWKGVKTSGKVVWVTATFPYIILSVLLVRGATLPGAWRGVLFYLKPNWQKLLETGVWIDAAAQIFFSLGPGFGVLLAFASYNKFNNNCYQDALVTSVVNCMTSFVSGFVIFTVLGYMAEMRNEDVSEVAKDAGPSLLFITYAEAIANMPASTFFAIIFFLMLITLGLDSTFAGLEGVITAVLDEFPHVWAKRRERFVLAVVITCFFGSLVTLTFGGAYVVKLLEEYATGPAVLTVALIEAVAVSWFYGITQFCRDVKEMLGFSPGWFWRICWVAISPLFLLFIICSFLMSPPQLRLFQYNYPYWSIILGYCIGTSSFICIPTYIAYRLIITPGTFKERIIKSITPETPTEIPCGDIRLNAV

In the case of `Fc1ccc(C(OCCN2CCN(CCCc3ccccc3)CC2)c2ccc(F)cc2)cc1` [GBR12909, reference compound], the inhibition (in general, the percentage by which the read-out fell short of the control) at 10 µM in assay [1] was found to be 70.6 ± 1.3%; in assay [2], 79.1 ± 0.71%; in assay [3], 85.9 ± 0.27%.

Regarding `CN1c2ccccc2C(NCCCC(=O)NCCc2c[nH]c3ccc(O)cc23)c2ccc(Cl)cc2S1(=O)=O` (centres unmarked) [Compound 11c, 4-((3-chloro-6-methyl-5,5-dioxido-6,11-dihydrodibenzo[c,f][1,2]thiazepin-11-yl)amino)-N-(2-(5-hydroxy-1H-indol-3-yl)ethyl)butanamide], the inhibition at 10 µM in assay [1] (setting [6]) worked out at 35.5 ± 3.7%; in assay [2] (setting [7]), 24.3 ± 7.4%; in assay [3] it was 41.3 ± 5.7%.

In the case of `CN1c2ccccc2C(NCCCCCCCC=CCc2c[nH]c3ccccc23)c2ccc(Cl)cc2S1(=O)=O` (centres unmarked) [Compound 21], the inhibition at 10 µM in assay [1] (setting [6]) stood at 26.3 ± 6.4%; in assay [2] (setting [7]) it was 5.64 ± 4.5%; in assay [3] it was 8.92 ± 6.1%. Further, the EC50 (as a rule, the concentration at which the effect is half-maximal) on hOPRM1 receptor was greater than 10 µM. Further, in assay [4], the “% Stimulation at 10 μM, OPRM1 Agonism against DAMGO (3.9 μM)” value (“% Stimulation at 10 μM, OPRM1 Agonism” for short) is reported as less than 10% ^b. The activation at 10 µM in assay [5] was less than 10%.

Take `CN1c2ccccc2C(NCCCCCC(=O)NCCc2c[nH]c3ccc(O)cc23)c2ccc(Cl)cc2S1(=O)=O` (centres unmarked) [Compound 11e, 6-((3-chloro-6-methyl-5,5-dioxido-6,11-dihydrodibenzo[c,f][1,2]thiazepin-11-yl)amino)-N-(2-(5-hydroxy-1H-indol-3-yl)ethyl)hexanamide]: the IC50 (in general, the midpoint of a concentration-inhibition curve) in assay [1] came to 6.74 ± 0.38 µM. Also, the values for the inhibition at 10 µM in assay [2] (setting [7]) and in assay [3] were 30.1 ± 5% and 40.2 ± 0.12%, respectively.

In the case of `CN1c2ccccc2C(NCCCCCCC(=O)NCCc2c[nH]c3ccccc23)c2ccc(Cl)cc2S1(=O)=O` (centres unmarked) [Compound 14, N-(2-(1H-indol-3-yl)ethyl)-7-((3-chloro-6-methyl-5,5-dioxido-6,11-dihydrodibenzo[c,f][1,2]thiazepin-11-yl)amino)heptanamide], the results for the inhibition at 10 µM in assay [1] (setting [6]) and in assay [2] (setting [7]) were 50.3 ± 3.4% and 65.2 ± 3.4%, respectively. The compound further had an IC50 in assay [3] of 3.81 ± 1.4 µM. Besides, the EC50 at hOPRM1 receptor is 0.113 ± 0.003 µM. For the same compound, the “% Stimulation at 10 μM, OPRM1 Agonism” value in assay [4] came out at 62.3 ± 2.9% ^b. The activation at 10 µM in assay [5] was less than 10%.

For the compound `CN1c2ccccc2C(NCCCCCCCCCCc2c[nH]c3ccccc23)c2ccc(Cl)cc2S1(=O)=O` (centres unmarked) [Compound 22], the inhibition at 10 µM was 17.9 ± 7.5% in assay [1] (setting [6]), 5.56 ± 0.07% in assay [2] (setting [7]) and 1.95 ± 0.06% in assay [3]. Also, the EC50 at hOPRM1 receptor was greater than 10 µM. In assay [4], the “% Stimulation at 10 μM, OPRM1 Agonism” value amounted to 11.8 ± 1.9% ^b. In assay [5], the activation at 10 µM is less than 10%.

In assay [1], `CN1c2ccccc2C(NCCC(=O)NCCc2c[nH]c3ccc(O)cc23)c2ccc(Cl)cc2S1(=O)=O` (centres unmarked) [Compound 11b, 3-((3-chloro-6-methyl-5,5-dioxido-6,11-dihydrodibenzo[c,f][1,2]thiazepin-11-yl)amino)-N-(2-(5-hydroxy-1H-indol-3-yl)ethyl)propanamide] had an IC50 of 4.08 ± 0.032 µM. In addition, the inhibition at 10 µM is 54.8 ± 3.7% in assay [2] (setting [7]) and 44.9 ± 4.2% in assay [3].

In the case of `CN1c2ccccc2C(NCC(=O)NCCc2c[nH]c3ccc(O)cc23)c2ccc(Cl)cc2S1(=O)=O` (centres unmarked) [Compound 11a, 2-((3-chloro-6-methyl-5,5-dioxido-6,11-dihydrodibenzo[c,f][1,2]thiazepin-11-yl)amino)-N-(2-(5-hydroxy-1H-indol-3-yl)ethyl)acetamide], the inhibition at 10 µM in assay [1] (setting [6]) turned out to be 50.9 ± 4.1%; in assay [2] (setting [7]), 13.2 ± 2.3%; in assay [3], 33.2 ± 6.5%.

On to `CNCCC(Oc1ccccc1OC)c1ccccc1` (centres unmarked) [Nisoxetine, reference compound], for which the values for the inhibition at 10 µM in assay [1] and in assay [3] were 79.8 ± 0.32% and 79.7 ± 1.4%, respectively.

The compound `CN(CCCCCCCNC1c2ccccc2N(C)S(=O)(=O)c2cc(Cl)ccc21)CCC(Oc1ccc(C(F)(F)F)cc1)c1ccccc1` (centres unmarked) [Compound 26, 3-chloro-6-methyl-11-((7-(methyl(3-phenyl-3-(4-(trifluoromethyl)phenoxy)propyl)amino)heptyl)amino)-6,11-dihydrodibenzo[c,f][1,2]thiazepine 5,5-dioxide] came in with an IC50 in assay [1] of 2.18 ± 0.37 µM. Moreover, the inhibition at 10 µM stood at 7.07 ± 4.1% in assay [2] (setting [7]) and 23.6 ± 12% in assay [3]. Besides, the EC50 at hOPRM1 receptor is greater than 10 µM. Further, the “% Stimulation at 10 μM, OPRM1 Agonism” value in assay [4] was less than 10% ^b. Moreover, in assay [5], the activation at 10 µM is less than 10%.

For `CN1c2ccccc2C(NCCCCC(=O)NCCc2c[nH]c3ccc(O)cc23)c2ccc(Cl)cc2S1(=O)=O` (centres unmarked) [Compound 11d, 5-((3-chloro-6-methyl-5,5-dioxido-6,11-dihydrodibenzo[c,f][1,2]thiazepin-11-yl)amino)-N-(2-(5-hydroxy-1H-indol-3-yl)ethyl)pentanamide], in assay [1] (HEK-hSERT, neurotransmitter uptake, mean ± SEM, n = 3–6, read-out: IC50 hSERT), the IC50 was found to be 10.1 ± 0.5 µM. Besides, the inhibition at 10 µM in assay [2] (setting [7]) was found to be 21.1 ± 4.7%; in assay [3] it was 41.3 ± 7.6%.

In the case of `CN1c2ccccc2C(NCCc2c[nH]c3ccc(O)cc23)c2ccc(Cl)cc2S1(=O)=O` (centres unmarked) [Compound 7, 3-chloro-11-((2-(5-hydroxy-1H-indol-3-yl)ethyl)amino)-6-methyl-6,11-dihydrodibenzo[c,f][1,2]thiazepine 5,5-dioxide], the inhibition at 10 µM was determined as 37.5 ± 2.5% in assay [1] (setting [6]), 30.8 ± 2.8% in assay [2] (setting [7]) and 36.2 ± 2.7% in assay [3].

In the case of `COc1ccc2[nH]cc(CCNC(=O)CCCCCCNC3c4ccccc4N(C)S(=O)(=O)c4cc(Cl)ccc43)c2c1` (centres unmarked) [Compound 13, 7-((3-chloro-6-methyl-5,5-dioxido-6,11-dihydrodibenzo[c,f][1,2]thiazepin-11-yl)amino)-N-(2-(5-methoxy-1H-indol-3-yl)ethyl)heptanamide], the inhibition at 10 µM in assay [1] (setting [6]) came out at 39.7 ± 6.3%; in assay [2] (setting [7]), 23.7 ± 7.5%; in assay [3], 25.6 ± 9.7%.

As for `CN1c2ccccc2C(NCCCCCCCNCCc2c[nH]c3ccc(C#N)cc23)c2ccc(Cl)cc2S1(=O)=O` (centres unmarked) [Compound 27, 3-(2-((7-((3-chloro-6-methyl-5,5-dioxido-6,11-dihydrodibenzo[c,f][1,2]thiazepin-11-yl)amino)heptyl)amino)ethyl)-1H-indole-5-carbonitrile], the results for the IC50 in assay [1] and in assay [3] were 0.462 ± 0.034 µM and 4.98 ± 2.1 µM, respectively. In addition, the inhibition at 10 µM in assay [2] (setting [7]) was found to be 63.6 ± 4.4%. Moreover, a half-maximal effect at hOPRM1 receptor (EC50) was put at 3.28 ± 0.642 µM. Moreover, the “% Stimulation at 10 μM, OPRM1 Agonism” value in assay [4] amounted to 65.9 ± 2.8% ^b. Besides, the activation at 10 µM in assay [5] was less than 10%.

As for `CC(C)C[C@H](CNC(=O)CCCCCCNC1c2ccccc2N(C)S(=O)(=O)c2cc(Cl)ccc21)CC(=O)O` (stereo partly drawn) [Compound 25, (3S)-3-((7-((3-chloro-6-methyl-5,5-dioxido-6,11-dihydrodibenzo[c,f][1,2]thiazepin-11-yl)amino)heptanamido)methyl)-5-methylhexanoic acid], the values for the inhibition at 10 µM in assay [1] (setting [6]), in assay [2] (setting [7]) and in assay [3] were 11.3 ± 2.5%, 21 ± 2.6% and 17.6 ± 8.9%, respectively. Also, the concentration giving a half-maximal response (EC50) on hOPRM1 receptor was greater than 10 µM; in assay [4], 2.41 ± 0.144 µM. The activation at 10 µM in assay [5] was less than 10%.
